In US4959373A, “Bispidine derivatives as class III antiarrhythmic agents” (BASF Aktiengesellschaft, priority 1987, dated 1990):
Structures can show the parent of a compound that is named as a salt.

System: QT interval
Assay: Antiarrhythmic Class III action in guinea pigs after intravenous administration (QT interval prolongation in the ECG)
Type: in vivo, Pirbright white guinea pigs
Settings: Cavia porcellus, anesthetized with urethane, ED 20% from linear relationship between log dose and relative QT prolongation (Δ%)
Description: The experimental animals used are male and female Pirbright white guinea pigs weighing from 300 to 500 g. Anesthesia is effected with 1.5 g/kg of urethane administered intraperitoneally. The substances are administered intravenously. To measure the ECG conduction times and the heart rate, the II. limb lead is recorded. The relevant parameters are the QT and PQ intervals and the heart rate. From 4 to 6 animals are used per dose. The criterion for Class III action is an increase in the QT interval compared with the values prior to administration of the substance. An increase in the PQ interval and a sharp decrease in the heart rate serve as exclusion criteria. The ED 20% is calculated from the linear relationship between log dose (mg/kg) of the substance and the relative prolongation of the QT interval (Δ%).

SMILES	ED (20%)
O=C(c1ccc(Cl)cc1)N1CC2CC(CN(Cc3ccccc3)C2)C1 [Example 2, 7-benzyl-3-(4-chlorobenzoyl)-3,7-diazabicyclo[3.3.1]nonyl hydrochloride]	4.6 mg/kg
O=C(Nc1ccc(Cl)cc1)N1CC2CC(CN(Cc3ccccc3)C2)C1 [Example 23, 7-Benzyl-3-(4-chlorophenylcarbamyl)-3,7-diazabicyclo[3.3.1]nonane]	2.4 mg/kg
Cc1ccc(NC(=O)N2CC3CC(CN(Cc4ccccc4)C3)C2)cc1 [Example 21, 7-Benzyl-3-(4-methylphenylcarbamyl)-3,7-diazabicyclo[3.3.1]nonane]	2.6 mg/kg
CC(C)NC[C@@H](O)c1ccc(NS(C)(=O)=O)cc1 [D-sotalol, reference compound]	3.6 mg/kg
Nc1ccc(C(=O)N2CC3CC(CN(Cc4ccccc4)C3)C2)cc1 [Ambasilide, reference compound]	6.3 mg/kg
O=C(Nc1ccccc1)N1CC2CC(CN(Cc3ccc(Cl)cc3)C2)C1 [Example 26, 3-(Phenylcarbamyl)-7-(4-chlorobenzyl)-3,7-diazabicyclo[3.3.1]nonane]	3.6 mg/kg
